Results from US12404241B2 (Celgene Corporation, priority 2018, dated 2025).

Molecular target: T1, AR (Homo sapiens, UniProt P10275)
T1 construct: endogenous in cells; host or cells: VCaP cells
T1 sequence (P10275 1-920): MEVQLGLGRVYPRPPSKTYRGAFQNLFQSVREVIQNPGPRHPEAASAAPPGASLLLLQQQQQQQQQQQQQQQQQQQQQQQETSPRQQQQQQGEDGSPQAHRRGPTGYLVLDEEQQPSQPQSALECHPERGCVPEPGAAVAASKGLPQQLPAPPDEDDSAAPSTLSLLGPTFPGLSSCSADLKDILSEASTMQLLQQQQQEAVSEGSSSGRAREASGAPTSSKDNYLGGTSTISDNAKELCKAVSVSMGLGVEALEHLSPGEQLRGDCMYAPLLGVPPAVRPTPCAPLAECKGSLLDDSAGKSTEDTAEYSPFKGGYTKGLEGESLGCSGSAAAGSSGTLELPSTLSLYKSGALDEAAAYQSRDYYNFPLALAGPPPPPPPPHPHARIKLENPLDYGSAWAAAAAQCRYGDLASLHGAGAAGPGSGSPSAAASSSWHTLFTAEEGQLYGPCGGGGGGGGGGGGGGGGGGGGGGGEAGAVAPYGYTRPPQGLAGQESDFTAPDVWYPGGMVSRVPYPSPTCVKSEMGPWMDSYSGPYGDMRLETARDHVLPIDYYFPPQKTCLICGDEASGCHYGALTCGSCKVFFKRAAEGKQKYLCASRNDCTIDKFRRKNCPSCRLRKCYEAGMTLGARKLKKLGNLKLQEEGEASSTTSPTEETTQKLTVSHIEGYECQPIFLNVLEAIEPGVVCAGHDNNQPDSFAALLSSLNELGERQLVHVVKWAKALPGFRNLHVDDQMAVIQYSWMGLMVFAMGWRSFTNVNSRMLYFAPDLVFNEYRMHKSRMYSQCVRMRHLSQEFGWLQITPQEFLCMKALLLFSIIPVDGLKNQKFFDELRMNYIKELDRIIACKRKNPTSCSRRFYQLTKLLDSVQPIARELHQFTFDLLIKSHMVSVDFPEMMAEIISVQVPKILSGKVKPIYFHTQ
Experiment: VCAP AR Degradation Assay
Format: cell-based
Conditions: for Y (AR degradation efficiency, % of DMSO control): class symbols *; for DC50: class symbols A-C, read-out: DC50
Procedure: VCAP AR Degradation Assay. Test compounds were pre-dispensed into a Corning CellBind 96-well clear bottom plate (Cat #3300) using an acoustic dispenser to make a 10-point concentration series at 1:3 dilution for each compound. The final top concentration of each compound was 5 μM. DMSO at a final concentration of 0.1% was used as a control. VCaP cells cultured in DMEM with 8% fetal bovine serum (FBS) were seeded at 50K cells per well in a 200 μL volume into the compound plate and incubated at 37° C. in a CO2 incubator for 24 h. The medium was carefully removed from the cells and the plate was placed on ice. One hundred μL of ice-cold 1x cell lysis buffer from Cell Signaling Technologies (Cat #9803) was added to each well of the cells and the plate was incubated at 4° C. on a shaker for 1 h. Fifteen μL of cell lysate was used for AR ELISA detection using a PathScan Total Sandwich AR ELISA kit (Cell Signaling Technology, Cat #12580). AR levels in compound-treated wells were normalized to that of DMSO control and expressed as percent of control (PoC) (y). A Four Parameter Logistic Model (Sigmoidal Dose-Response Model) was used to determine the compound's DC50, and EC50, using the following equation:
[formula] • A=YMin (lowest AR level normalized to DMSO control in response to compound treatment, as determined by curve fit) • B=YMax (maximum AR level as determined by curve fit) • C=EC50 • D=Hill Slope • x=compound concentration • EC50=the concentration of compound when y=(YMax−YMin)/2 • DC50=the concentration of the compound when y=50% of DMSO control (50% AR degradation) • y=AR protein level normalized to DMSO control
The lowest measured AR level normalized to DMSO control in response to compound treatment, termed Y value, was used to characterize the compound-mediated AR degradation efficiency.

| SMILES | Y (AR degradation efficiency, % of DMSO control) | DC50 |
| --- | --- | --- |
| CC(C)Cc1cc(N2C(=S)N(c3ccc(C#N)c(C(F)(F)F)c3)C(=O)C2(C)C)ccc1OCCN1CCN(CC(=O)Nc2cccc(NC3CCC(=O)NC3=O)c2)CC1 (centres unmarked) [Example 18] | * (0<Y<=25%) | < 100 nM |
| CCc1c(OCCN2C[C@@H](C)N(CC(=O)Nc3cccc(NC4CCC(=O)NC4=O)c3)[C@@H](C)C2)ccc(N2C(=S)N(c3ccc(C#N)c(C(F)(F)F)c3)C(=O)C2(C)C)c1C (stereo partly drawn) [Example 270, 2-((2R,6S)-4-(2-(4-(3-(4-cyano-3-(trifluoromethyl)phenyl)-5,5-dimethyl-4-oxo-2-thioxoimidazolidin-1-yl)-2-ethyl-3-methylphenoxy)ethyl)-2,6-dimethylpiperazin-1-yl)-N-(3-(2,6-dioxopiperidin-3-ylamino)phenyl)acetamide] | ** (25%<Y<=35%) | 100 to 500 nM |
| C[C@@H]1CN(CCOc2ccc(N3C(=S)N(c4cnc(C#N)c(C(F)(F)F)c4)C(=O)C3(C)C)cc2C(C)(F)F)C[C@H](C)N1CC(=O)Nc1cccc(NC2CCC(=O)NC2=O)c1 (stereo partly drawn) [Example 255, 2-((2S,6R)-4-(2-(4-(3-(6-cyano-5-(trifluoromethyl)pyridin-3-yl)-5,5-dimethyl-4-oxo-2-thioxoimidazolidin-1-yl)-2-(1,1-difluoroethyl)phenoxy)ethyl)-2,6-dimethylpiperazin-1-yl)-N-(3-(2,6-dioxopiperidin-3-ylamino)phenyl)acetamide] | * (0<Y<=25%) | < 100 nM |
| CCc1cc(N2C(=S)N(c3ccc(C#N)c(C(F)(F)F)c3)C(=O)C2(C)C)ccc1OCCN1CCN(CC(=O)Nc2cccc(NC3CCC(=O)NC3=O)c2)C(C)(C)C1 (centres unmarked) [Example 95, 2-(4-(2-(4-(3-(4-cyano-3-(trifluoromethyl)phenyl)-5,5-dimethyl-4-oxo-2-thioxoimidazolidin-1-yl)-2-ethylphenoxy)ethyl)-2,2-dimethylpiperazin-1-yl)-N-(3-(2,6-dioxopiperidin-3-ylamino)phenyl)acetamide] | * (0<Y<=25%) | < 100 nM |
| CC(C)c1cc(N2C(=S)N(c3ccc(C#N)c(C(F)(F)F)c3)C(=O)C2(C)C)ccc1OCCN1CCN(CC(=O)Nc2cccc(NC3CCC(=O)NC3=O)c2)[C@H](C)C1 (stereo partly drawn) [Example 162, 2-((R)-4-(2-(4-(3-(4-cyano-3-(trifluoromethyl)phenyl)-5,5-dimethyl-4-oxo-2-thioxoimidazolidin-1-yl)-2-isopropylphenoxy)ethyl)-2-methylpiperazin-1-yl)-N-(3-(2,6-dioxopiperidin-3-ylamino)phenyl)acetamide] | ** (25%<Y<=35%) | 100 to 500 nM |
| CC(C)c1cc(N2C(=S)N(c3cnc(C#N)c(C(F)(F)F)c3)C(=O)C23CCC3)ccc1OCCN1C[C@@H](C)N(CC(=O)Nc2cccc(NC3CCC(=O)NC3=O)c2)[C@@H](C)C1 (stereo partly drawn) [Example 176, 2-((2S,6R)-4-(2-(4-(7-(6-cyano-5-(trifluoromethyl)pyridin-3-yl)-8-oxo-6-thioxo-5,7-diazaspiro[3.4]octan-5-yl)-2-isopropylphenoxy)ethyl)-2,6-dimethylpiperazin-1-yl)-N-(3-(2,6-dioxopiperidin-3-ylamino)phenyl)acetamide] | * (0<Y<=25%) | < 100 nM |
| CCc1cc(N2C(=S)N(c3ccc(C#N)c(C(F)(F)F)c3)C(=O)C23CCC3)ccc1OCCN1CCN(CC(=O)Nc2cc(F)cc(NC3CCC(=O)NC3=O)c2)[C@H](C)C1 (stereo partly drawn) [Example 104, 2-((R)-4-(2-(4-(7-(4-cyano-3-(trifluoromethyl)phenyl)-8-oxo-6-thioxo-5,7-diazaspiro[3.4]octan-5-yl)-2-ethylphenoxy)ethyl)-2-methylpiperazin-1-yl)-N-(3-(2,6-dioxopiperidin-3-ylamino)-5-fluorophenyl)acetamide] | * (0<Y<=25%) | < 100 nM |
| CCc1cc(N2C(=S)N(c3cnc(C#N)c(C(F)(F)F)c3)C(=O)C2(C)C)ccc1OCCN1CCN(CC(=O)Nc2cc(Cl)cc(NC3CCC(=O)NC3=O)c2)[C@H](C)C1 (stereo partly drawn) [Example 144, N-(3-chloro-5-(2,6-dioxopiperidin-3-ylamino)phenyl)-2-((R)-4-(2-(4-(3-(6-cyano-5-(trifluoromethyl)pyridin-3-yl)-5,5-dimethyl-4-oxo-2-thioxoimidazolidin-1-yl)-2-ethylphenoxy)ethyl)-2-methylpiperazin-1-yl)acetamide] | * (0<Y<=25%) | < 100 nM |
| CCc1cc(N2C(=S)N(c3ccc(C#N)c(C(F)(F)F)c3)C(=O)C2(C)C)ccc1OCCN1CCN(CC(=O)Nc2cc(F)cc(NC3CCC(=O)NC3=O)c2)CC1 (centres unmarked) [Example 61, 2-(4-(2-(4-(3-(4-cyano-3-(trifluoromethyl)phenyl)-5,5-dimethyl-4-oxo-2-thioxoimidazolidin-1-yl)-2-ethylphenoxy)ethyl)piperazin-1-yl)-N-(3-(2,6-dioxopiperidin-3-ylamino)-5-fluorophenyl)acetamide] | * (0<Y<=25%) | < 100 nM |
| CCc1cc(N2C(=S)N(c3ccc(C#N)c(C(F)(F)F)c3)C(=O)C2(C)C)ccc1OCCN1C[C@H](C)N(CC(=O)Nc2cccc(NC3CCC(=O)NC3=O)c2)C[C@@H]1C (stereo partly drawn) [Example 125, 2-((2S,5S)-4-(2-(4-(3-(4-cyano-3-(trifluoromethyl)phenyl)-5,5-dimethyl-4-oxo-2-thioxoimidazolidin-1-yl)-2-ethylphenoxy)ethyl)-2,5-dimethylpiperazin-1-yl)-N-(3-(2,6-dioxopiperidin-3-ylamino)phenyl)acetamide] | * (0<Y<=25%) | 100 to 500 nM |
| C[C@@H]1CN(CCOc2ccc(N3C(=S)N(c4ccc(C#N)c(C(F)(F)F)c4)C(=O)C3(C)C)cc2CCF)CCN1CC(=O)Nc1cccc(NC2CCC(=O)NC2=O)c1 (stereo partly drawn) [Example 164, 2-((R)-4-(2-(4-(3-(4-cyano-3-(trifluoromethyl)phenyl)-5,5-dimethyl-4-oxo-2-thioxoimidazolidin-1-yl)-2-(2-fluoroethyl)phenoxy)ethyl)-2-methylpiperazin-1-yl)-N-(3-(2,6-dioxopiperidin-3-ylamino)phenyl)acetamide] | * (0<Y<=25%) | < 100 nM |
| CCc1cc(N2C(=S)N(c3cnc(C#N)c(C(F)(F)F)c3)C(=O)C23CCC3)ccc1OCCN1CCN(C2(C(=O)Nc3cccc(NC4CCC(=O)NC4=O)c3)CC2)CC1 (centres unmarked) [Example 188, 1-(4-(2-(4-(7-(6-cyano-5-(trifluoromethyl)pyridin-3-yl)-8-oxo-6-thioxo-5,7-diazaspiro[3.4]octan-5-yl)-2-ethylphenoxy)ethyl)piperazin-1-yl)-N-(3-(2,6-dioxopiperidin-3-ylamino)phenyl)cyclopropanecarboxamide] | * (0<Y<=25%) | < 100 nM |
| CCc1cc(N2C(=S)N(c3cnc(C#N)c(C(F)(F)F)c3)C(=O)C2(C)C)ccc1OCCN1CCN(CC(=O)Nc2cc(Cl)cc(NC3CCC(=O)NC3=O)c2)[C@H](C)C1 (stereo partly drawn) [Example 74, N-(3-chloro-5-(2,6-dioxopiperidin-3-ylamino)phenyl)-2-((R)-4-(2-(4-(3-(6-cyano-5-(trifluoromethyl)pyridin-3-yl)-5,5-dimethyl-4-oxo-2-thioxoimidazolidin-1-yl)-2-ethylphenoxy)ethyl)-2-methylpiperazin-1-yl)acetamide] | * (0<Y<=25%) | < 100 nM |
